This note sets out measurements from patent publication US7563903B2, “Acylaminothiazole derivatives, their preparation and their therapeutic use” (Sanofi-Aventis, priority 2003, dated 2009).

pEC50: −log10 of the molar value.

In one series the target is T1, gamma-secretase (Homo sapiens, UniProt P49768, M146L).
T1 construct: expressed in transfected cells; host or cells: CHO-K1 (clone 30-12)
In words: β-amyloid cellular trial: inhibition of β-amyloid peptide (β-A4) production, ELISA. In kind it is cell-based. The settings on record: CHO-K1 line coexpressing the CT100 of APP and PSI M146L clone 30-12, 24-25 h incubation, ELISA of supernatants, read-out: EC50 (50% effective concentration). From the text: For the β-amyloid cellular trial, the CHO-K1 line coexpressing the CT100 of APP and PSI M146L clone 30-12 is used. The line targets the inhibition of gamma-secretase. Presenilin is linked to the gamma-secretase activity (Wolfe M S, Haass C., The Role of presenilins in gamma-secretase activity, J. Biol. Chem., Feb. 23, 2001 276(8), 5413-6) and its coexpression with the amyloid protein or its N-terminal fragment causes an increase in the secretion of the A1-42 peptide (β-A4) thus generating a pharmacological tool which makes it possible to evaluate inhibition by the compounds of formula (I) of the production of the β-A4 peptide. The inoculation of the 96-well culture plates is carried out at the rate of 1×10^5 cells per well in 150 μl of incubation medium. […]
The quantity of bound peptide is detected in an indirect manner in the presence of a competitor corresponding to the truncated peptide, peptide 1-28 coupled to biotin which is then detected with streptavidin coupled to alkaline phosphatase. The substrate, p-Nitrophenyl Phosphate (pNPP FAST p-Nitrophenyl Phosphate, Sigma N2770), gives a yellow soluble reaction product which can be read at 405 nm. […] After incubating for 30 minutes at room temperature, the reaction is stopped by the addition of 100 μl per well of 0.1M EDTA and the reading is carried out at 405 nm.

As to `CCC[C@H](NC(=O)[C@@H](O)C(C)(C)C)C(=O)Nc1ncc(-c2ccccc2COc2ccc(Cl)c(Cl)c2)s1` [compound 50, (2S)—N-(5-{2-[(3,4-dichlorophenoxy)methyl]phenyl}-1,3-thiazol-2-yl)-2-{[(2S)-2-hydroxy-3,3-dimethylbutanoyl]amino}pentanamide], on gamma-secretase, the pEC50 was 6.53.
Broadly, the melting point is the temperature, or range, at which the solid turns liquid. `CCC[C@H](NC(=O)[C@@H](O)C(C)(C)C)C(=O)Nc1ncc(-c2ccc(F)cc2COc2ccccc2)s1` [compound 48, (2S)—N-{5-[4-fluoro-2-(phenoxymethyl)phenyl]-1,3-thiazol-2-yl}-2-{[(2S)-2-hydroxy-3,3-dimethylbutanoyl]amino}pentanamide] registered a melting point of 75.5 °C.
